Experiments:
Type in all cases: cell-based
[1] = test system: human neutrophils; experiment: cytosolic free Ca2+ changes in quin-2 loaded human neutrophils; conditions: as low as
Method: Upper graphs: cytosolic free Ca^2+ changes induced by natural (left) and recombinant (right) NAF. Neutrophils (4×10^6 cells/ml) are loaded with 0.1 nmol quin-2/AM and then stimulated with 3 nM NAF (mark). Quin-2 saturation changes calibrated as described in V. Von Tscharner et al., J. Biol. Chem. 261 (1986) 10163-10168.
(§1) Natural and recombinant NAF are tested in parallel on human neutrophils. They elicit virtually identical changes in cytosolic free Ca^2+, yielding a maximum rise at a concentration as low as 3 nM (FIG. 15). A nearly identical concentration-dependent respiratory burst response is obtained with both preparations in the range of 1 to 30 nM as assessed by chemiluminescence. The equivalence between natural and recombinant NAF is also reflected by chemotaxis and exocytosis measurements. Chemotactic migration is observed between 0.1 and 10 nM with a maximum effect at 1 nM. (Table 6). With either peptide a significant release of vitamin B12-binding protein from the specific granules at 0.3 nM and of beta-glucuronidase from the azurophil granules at 1 nM is observed.

[2] = test system: human neutrophils; experiment: stimulus-dependent exocytosis of granule contents by human neutrophils
Method: Neutrophils (5×10^6/ml) suspended in PBS/BSA are preincubated with or without cytochalasin B (5 μg/ml) at 37° for 5 min.
Granule release is then initiated by adding the stimulus, e.g. NAF or a standard stimulus. The reaction is stopped 15 min later by rapid cooling in ice followed by centrifugation to sediment the cells. Vitamin B12-binding protein, β-glucuronidase and lactate dehydrogenase are determined in the cell-free media and cell pellets, and the release of these constituents is calculated in percent of the total cellular content (B. Dewalt and M. Baggiolini, Methods Enzymol. 132 [1986] 267).
as §1

[3] = test system: human neutrophils; experiment: NAF-induced neutrophil chemotaxis (leading front migration); conditions: for leading front migration: random migration 61 ± 5 μm
Method: as §1

[4] = test system: human neutrophils; experiment: elastase release from human neutrophils pretreated with cytochalasin B (NAF activity); conditions: phosphocellulose fractions
Description: Human monocytes are isolated from buffy coats of donor blood (Swiss Red Cross Laboratory, Bern, Switzerland) by centrifugation through a Ficoll-Paque gradient. This method separates neutrophils from the so-called mononuclear cells, a mixture of monocytes (about 20%) and lymphocytes (about 80%). Three monocyte preparations are used: (i) the total mononuclear cell fraction, (ii) monocytes enriched from the mononuclear cell fraction by adherence, and (iii) 90% pure monocytes separated from the lymphocytes by centrifugal elutriation (G. Garotta et al., Biochem. Biophys. Res. Comm. 140 [1986] 948-954 and K. J. Clemetson et al., J. Exp. Med. 161 [1985] 972-983). The cells are cultured in MEM-PPL and stimulated with increasing concentrations (0.1 ng to 1 μg/ml) of LPS. At different times, aliquots of the culture media are sampled and NAF activity is determined as the capacity to induce the release of elastase from human neutrophils pretreated with cytochalasin B (B. Dewald et al., Biochem. Pharmacol. 36 [1987] 2505-2510).
Mononuclear cells obtained from donor blood buffy coats as described in Example 1 are cultured in MEM-PPL for 48 h in the presence of 100 ng/ml LPS in stirred culture bottles (1.5 liter, 5×10^6 cells/ml). […] Absorbance at 280 nm is monitored continuously as a measure of protein. […]

In the case of “recombinant NAF: 72-amino-acid NAF obtained by recombinant DNA processes, expressed in E. coli”, the “concentration yielding a maximum rise in cytosolic free Ca2+” value [1] is reported as 3 nM, the “concentration giving significant release of beta-glucuronidase from the azurophil granules” value [2] is reported as 1 nM and the “concentration giving significant release of vitamin B12-binding protein from the specific granules” value [2] is reported as 0.3 nM. For the same substance, the “concentration of maximum chemotactic effect” value [3] was 1 nM, the leading front migration ([3]; NAF 0.1 nM) was 88 ± 6 μm and the leading front migration ([3]; NAF 1.0 nM) was 124 ± 3 μm. For the same substance, the leading front migration ([3]; NAF 10.0 nM) was 126 ± 4 μm.
In the case of “natural NAF: NAF purified from culture fluid of LPS-stimulated human monocytes”, the “concentration yielding a maximum rise in cytosolic free Ca2+” value [1] is reported as 3 nM, the “concentration giving significant release of beta-glucuronidase from the azurophil granules” value [2] is reported as 1 nM and the “concentration giving significant release of vitamin B12-binding protein from the specific granules” value [2] is reported as 0.3 nM. The “concentration of maximum chemotactic effect” value [3] was 1 nM, the leading front migration ([3]; NAF 0.1 nM) was 98 ± 6 μm and the leading front migration ([3]; NAF 1.0 nM) was 123 ± 6 μm. It also gave a leading front migration ([3]; NAF 10.0 nM) of 127 ± 3 μm.
interleukin-1 [IL-1] was tested, and the elastase-releasing activity [4] was “no elastase-releasing activity”.

From US6383479B1, “Neutrophil-activating factor” (Novartis AG, priority 1987, dated 2002)
